Biological target: BRD4 protein (Homo sapiens, UniProt O60885)
Assay: FRET assay, half maximal inhibitory concentration (IC50)
Type: binding
Details: BRD4 protein 50 nM, Biotin-H4KAc4 peptide 12.5 nM; List of Classification
Procedure, shortened: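 Acetylated histone H4 peptide binding (biotin-H4KAc4, 12.5 nM final) to BRD4 (50 nM final) detected by TR-FRET between streptavidin cryptate (2.4 nM) and GST-XL665 antibody (10 nM) in KF/BSA. Buffer: HEPES pH 7.5, NaCl, CHAPS. Compound dilutions from 50 μM in 12.5% DMSO were preincubated with protein for 30 min. Variable-slope IC50.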

| SMILES | IC50 |
| --- | --- |
| Cc1cc(O)nc2ccc(NC(=O)c3cc(C(C)O)ccc3N3CCOCC3)cc12 (centres unmarked) [Compound-168, N-(2-hydroxy-4-methylquinolin-6-yl)-5-(1-hydroxyethyl)-2-morpholinobenzamide] | < 200 nM |
| COc1cc(NC(=O)c2cc(-c3cnn(C)c3)cnc2N2CCOCC2)cc2c(C)cc(O)nc12 [Compound-169, N-(2-hydroxy-8-methoxy-4-methylquinolin-6-yl)-5-(1-methyl-1H-pyrazol-4-yl)-2-morpholinonicotinamide] | < 200 nM |
| COc1cc2nc(O)cc(C)c2cc1NC(=O)c1cc(-c2cnn(C)c2)cnc1N1CCOCC1 [Compound-170, N-(2-hydroxy-7-methoxy-4-methylquinolin-6-yl)-5-(1-methyl-1H-pyrazol-4-yl)-2-morpholinonicotinamide] | < 200 nM |
| Cc1cc2nc(O)cc(C)c2cc1NC(=O)c1cc(-c2cnn(C)c2)cnc1N1CCOCC1 [Compound-171, N-(2-hydroxy-4,7-dimethylquinolin-6-yl)-5-(1-methyl-1H-pyrazol-4-yl)-2-morpholinonicotinamide] | < 200 nM |
| Cc1cc(=O)[nH]c2ccc(NC(=O)c3cc(S(=O)(=O)N(C)C)ccc3N3CC[C@@H](F)C3)cc12 [Compound-172, (R)-5-(N,N-dimethylsulfamoyl)-2-(3-fluoropyrrolidin-1-yl)-N-(4-methyl-2-oxo-1,2-dihydroquinolin-6-yl)benzamide] | < 200 nM |
| Cc1cc(=O)[nH]c2ccc(NC(=O)c3cc(S(=O)(=O)N(C)C)ccc3N3CC[C@H](F)C3)cc12 [Compound-173, (S)-5-(N,N-dimethylsulfamoyl)-2-(3-fluoropyrrolidin-1-yl)-N-(4-methyl-2-oxo-1,2-dihydroquinolin-6-yl)benzamide] | < 200 nM |
| Cc1cc(O)nc2ccc(NC(=O)c3cc(-c4nnn[nH]4)ccc3N3CCOCC3)cc12 [Compound-181, N-(2-hydroxy-4-methylquinolin-6-yl)-2-morpholino-5-(1H-tetrazol-5-yl)benzamide] | < 200 nM |
| Cc1cc(O)nc2ccc(NC(=O)c3cc(C(=O)O)ccc3N3CCOCC3)cc12 [Compound-182, 3-(2-hydroxy-4-methylquinolin-6-ylcarbamoyl)-4-morpholinobenzoic acid] | < 200 nM |
| Cc1cc(O)nc2ccc(NC(=O)c3cc(N4CCN(C)CC4)cnc3N3CCOCC3)cc12 [Compound-185, N-(2-hydroxy-4-methylquinolin-6-yl)-5-(4-methylpiperazin-1-yl)-2-morpholinonicotinamide] | < 200 nM |
| Cc1cc2nc(O)cc(C)c2cc1NC(=O)c1cc(-c2c(C)noc2C)cnc1N1CCOCC1 [Compound-188, 5-(3,5-dimethylisoxazol-4-yl)-N-(2-hydroxy-4,7-dimethylquinolin-6-yl)-2-morpholinonicotinamide] | < 200 nM |
| Cc1cc2nc(O)cc(C)c2cc1NC(=O)c1cc(-c2nnn(C)n2)cnc1N1CCOCC1 [Compound-195, N-(2-hydroxy-4,7-dimethylquinolin-6-yl)-5-(2-methyl-2H-tetrazol-5-yl)-2-morpholinonicotinamide] | < 200 nM |
| Cc1cc2nc(O)cc(C)c2cc1NC(=O)c1cc(-c2nnnn2C)cnc1N1CCOCC1 [Compound-196, N-(2-hydroxy-4,7-dimethylquinolin-6-yl)-5-(1-methyl-1H-tetrazol-5-yl)-2-morpholinonicotinamide] | > 10000 nM |
| Cc1cc(O)nc2ccc(NC(=O)c3cc(C#N)ncc3N3CCC(F)C3)cc12 (centres unmarked) [Compound-197, 2-cyano-5-(3-fluoropyrrolidin-1-yl)-N-(2-hydroxy-4-methylquinolin-6-yl) isonicotinamide] | 500 to 1000 nM |
| Cc1cc(O)nc2ccc(NC(=O)c3cc(S(=O)(=O)N(C)C)cnc3N3CCC(F)C3)cc12 (centres unmarked) [Compound-199, 5-(N,N-dimethylsulfamoyl)-2-(3-fluoropyrrolidin-1-yl)-N-(2-hydroxy-4-methylquinolin-6-yl)nicotinamide] | < 200 nM |
| Cc1cc(-c2cnc(N3CCOCC3)c(C(=O)Nc3cc4c(C)cc(O)nc4cc3C)c2)on1 [Compound-200, N-(2-hydroxy-4,7-dimethylquinolin-6-yl)-5-(3-methylisoxazol-5-yl)-2-morpholinonicotinamide] | 200 to 500 nM |
| COc1cc2nc(O)cc(C)c2cc1NC(=O)c1cc(-c2nnc(C)o2)ccc1N1CCOCC1 [Compound-201, N-(2-hydroxy-7-methoxy-4-methylquinolin-6-yl)-5-(5-methyl-1,3,4-oxadiazol-2-yl)-2-morpholinobenzamide] | < 200 nM |
| Cc1cc(O)nc2ccc(NC(=O)c3cc(-c4nnn[nH]4)ncc3N3CCCC3)cc12 [Compound-203, N-(2-hydroxy-4-methylquinolin-6-yl)-5-(pyrrolidin-1-yl)-2-(1H-tetrazol-5-yl) isonicotinamide] | < 200 nM |
| Cc1cc(O)nc2ccc(NC(=O)c3cc(C(C)O)ccc3N3CCCC3c3ccccn3)cc12 (centres unmarked) [Compound-206, N-(2-hydroxy-4-methylquinolin-6-yl)-5-(1-hydroxyethyl)-2-(2-(pyridin-2-yl)pyrrolidin-1-yl)benzamide] | < 200 nM |
| CC(=O)c1cc(C(=O)Nc2ccc3nc(O)cc(C)c3c2)c(N2CCC(F)C2)cn1 (centres unmarked) [Compound-209] | < 200 nM |
| Cc1cc(O)nc2ccc(NC(=O)c3cc(C(C)O)ncc3N3CCC(F)C3)cc12 (centres unmarked) [Compound-210, 5-(3-fluoropyrrolidin-1-yl)-N-(2-hydroxy-4-methylquinolin-6-yl)-2-(1-hydroxyethyl) isonicotinamide] | < 200 nM |
| Cc1cc(O)nc2ccc(NC(=O)c3cc(C#N)ncc3N3CCCC3CN(C)C)cc12 (centres unmarked) [Compound-211] | 200 to 500 nM |
| CC(=O)c1cc(C(=O)Nc2ccc3nc(O)cc(C)c3c2)c(N2CCCC2CN(C)C)cn1 (centres unmarked) [Compound-212, 2-acetyl-5-(2-((dimethylamino)methyl)pyrrolidin-1-yl)-N-(2-hydroxy-4-methylquinolin-6-yl)isonicotinamide] | < 200 nM |

The remaining lines, values ahead:

| IC50 | SMILES |
| --- | --- |
| 500 to 1000 nM | Cc1cc(O)nc2ccc(NC(=O)c3cc(-c4ccoc4)cnc3N3CCOCC3)cc12 [Compound-174, 5-(furan-3-yl)-N-(2-hydroxy-4-methylquinolin-6-yl)-2-morpholinonicotinamide] |
| < 200 nM | Cc1cc(O)nc2ccc(NC(=O)c3cc(-c4cnn(C)c4)cnc3N3CCOCC3)cc12 [Compound-175, N-(2-hydroxy-4-methylquinolin-6-yl)-5-(1-methyl-1H-pyrazol-4-yl)-2-morpholinonicotinamide] |
| < 200 nM | Cc1cc(O)nc2ccc(NC(=O)c3cc(-c4cnoc4)cnc3N3CCOCC3)cc12 [Compound-176, N-(2-hydroxy-4-methylquinolin-6-yl)-5-(isoxazol-4-yl)-2-morpholinonicotinamide] |
| < 200 nM | Cc1noc(C)c1-c1cnc(N2CCOCC2)c(C(=O)Nc2ccc3nc(O)cc(C)c3c2)c1 [Compound-177, 5-(3,5-dimethylisoxazol-4-yl)-N-(2-hydroxy-4-methylquinolin-6-yl)-2-morpholinonicotinamide] |
| 500 to 1000 nM | Cc1cc(O)nc2ccc(NC(=O)c3cc(-c4ccoc4)cnc3N3CC4(COC4)C3)cc12 [Compound-178, 5-(furan-3-yl)-N-(2-hydroxy-4-methylquinolin-6-yl)-2-(2-oxa-6-azaspiro[3.3]heptan-6-yl)nicotinamide] |
| < 200 nM | Cc1cc(O)nc2c(C)cc(NC(=O)c3cc(-c4ccoc4)cnc3N3CCOCC3)cc12 [Compound-179, 5-(furan-3-yl)-N-(2-hydroxy-4,8-dimethylquinolin-6-yl)-2-morpholinonicotinamide] |
| < 200 nM | Cc1nnc(-c2ccc(N3CCOCC3)c(C(=O)Nc3ccc4nc(O)cc(C)c4c3)c2)o1 [Compound-180, N-(2-hydroxy-4-methylquinolin-6-yl)-5-(5-methyl-1,3,4-oxadiazol-2-yl)-2-morpholinobenzamide] |
| 500 to 1000 nM | Cc1cc(O)nc2ccc(NC(=O)c3cc(C#N)cnc3N3CCOCC3)cc12 [Compound-183, 5-cyano-N-(2-hydroxy-4-methylquinolin-6-yl)-2-morpholinonicotinamide] |
| 500 to 1000 nM | Cc1cc(O)nc2ccc(NC(=O)c3cc(Br)cnc3N3CCC(F)C3)cc12 (centres unmarked) [Compound-184, 5-bromo-2-(3-fluoropyrrolidin-1-yl)-N-(2-hydroxy-4-methylquinolin-6-yl) nicotinamide] |
| < 200 nM | Cc1cc(O)nc2ccc(NC(=O)c3cc(N4CCOCC4)cnc3N3CCOCC3)cc12 [Compound-186, N-(2-hydroxy-4-methylquinolin-6-yl)-2,5-dimorpholinonicotinamide] |
| < 200 nM | COc1cc(NC(=O)c2cc(-c3ccoc3)cnc2N2CCOCC2)cc2c(C)cc(O)nc12 [Compound-189, 5-(furan-3-yl)-N-(2-hydroxy-8-methoxy-4-methylquinolin-6-yl)-2-morpholinonicotinamide] |
| 1000 to 10000 nM | COc1cc2nc(O)cc(C)c2cc1NC(=O)c1cc(-c2ccoc2)cnc1N1CCOCC1 [Compound-190, 5-(furan-3-yl)-N-(2-hydroxy-7-methoxy-4-methylquinolin-6-yl)-2-morpholinonicotinamide] |
| < 200 nM | Cc1cc2nc(O)cc(C)c2cc1NC(=O)c1cc(-c2ccoc2)cnc1N1CCOCC1 [Compound-191, 5-(furan-3-yl)-N-(2-hydroxy-4,7-dimethylquinolin-6-yl)-2-morpholinonicotinamide] |
| < 200 nM | Cc1cc(O)nc2ccc(NC(=O)c3cc(C(N)=O)ncc3N3CCCC3)cc12 [Compound-202, N4-(2-hydroxy-4-methylquinolin-6-yl)-5-(pyrrolidin-1-yl)pyridine-2,4-dicarboxamide] |
| < 200 nM | CC(=O)c1cc(C(=O)Nc2ccc3nc(O)cc(C)c3c2)c(N2CCOCC2)cn1 [Compound-207, 2-acetyl-N-(2-hydroxy-4-methylquinolin-6-yl)-5-morpholinoisonicotinamide] |
| < 200 nM | Cc1cc(O)nc2ccc(NC(=O)c3cc(C(C)O)ncc3N3CCOCC3)cc12 (centres unmarked) [Compound-208, N-(2-hydroxy-4-methylquinolin-6-yl)-2-(1-hydroxyethyl)-5-morpholinoisonicotinamide] |

Source: patent US10752640B2, “Compounds active towards bromodomains” (NUEVOLUTION A/S, priority 2014, dated 2020)
